Measurements: article PMC12797170, “Potent Competitive Inhibitors of Ecto-5′-nucleotidase (CD73) based on 6‑(Het)aryl-7-deazapurine Ribonucleoside 5′‑O‑Bisphosphonates” (ACS Pharmacology & Translational Science, 2025)
Values after ≈ are worked out from the molar mass of the structure shown.

Columns and labels:
[1] = In vivo pharmacokinetic study, intravenous; set-up: species or system male CD-1 mice; details: plasma, 1 mg/kg, intravenous; for half-life: male, CD-1, mouse, iv, footnote: t1/2 stability in plasma, text: half-life in mouse PK; for clearance: mouse, male CD-1 mice, single dose, read-out: Cl (obs), observed clearance
Experimental: The pharmacokinetic study was performed by Bienta (Enamine Biology Services) using male CD-1 mice (3 animals, 9 weeks old, body weight ranging from 29.2 to 33.7 g) following intravenous administration. Levels of the test compound were determined by LC-MS/MS in blood plasma over time (seven sampling time points: 5, 15, 30, 60, 120, 240, and 480 min) after a single dose.
Animal treatment and samples preparation were conducted by the Animal Laboratory personnel at Enamine/Bienta.

[2] = Microsomal stability assay, mouse liver microsomes; format: in vitro ADME; details: 10 μM
[3] = Kinetic solubility in PBS; format: physicochemical; details: phosphate-buffered saline, pH 7.4, aqueous buffer, kinetic from dmso stock
Experimental: Test compounds were prepared as 10 mM stock solutions in DMSO and diluted in phosphate-buffered saline (PBS, pH 7.4) to a 100 μM solution, which was then aliquoted in duplicate. The duplicate samples were incubated in Multiscreen PCF Filter Plates (Merck Millipore) with sealed bottom at room temperature on a shaker for 2 h to allow equilibration. Following incubation, the samples were centrifuged into nonsterile, flat-bottom 96-well plates at 2,200 RCF for 12 min. Supernatants were then diluted 1:99 in a solution of 50% acetonitrile containing 0.1% DMSO. The diluted samples were transferred to 384-well Echo plates, which contained prespotted calibration standards prepared by Echo transfer of 10 mM and 1 mM DMSO stock solutions, resulting in calibration points ranging from 0.05 to 4 μM. Samples and standards were subsequently analyzed by Echo-MS.

[4] = Plasma protein binding, mouse plasma; format: in vitro ADME; details: mouse, plasma, mouse plasma protein binding; read-out: PPB (m) (converted)
Experimental: (§1) Plasma protein binding of the investigated compounds was determined using equilibrium dialysis in single-use Rapid Equilibrium Dialysis devices with an 8 kDa molecular weight cutoff (Thermo Fisher Scientific), following the manufacturer’s protocol. In brief, 50 μL of undiluted human plasma (Biowest), spiked with the test compound at a final concentration of 100 μM, was added to the sample chamber, while 300 μL of phosphate-buffered saline (PBS) was placed in the buffer chamber. Devices were incubated for 4 h at 37 °C with gentle shaking.
(§2) After dialysis, 7.5 μL aliquots from both the plasma and buffer chambers were transferred directly into wells of a 384-well plate. To equalize the matrices for downstream processing, 7.5 μL of PBS was added to each plasma aliquot, and 7.5 μL of plasma was added to each buffer aliquot. Proteins were precipitated by adding four volumes of ice-cold methanol to each well, followed by thorough mixing and incubation at – 20 °C for 30 min. Plates were then stored overnight at 8 °C. Prior to analysis, the plate was centrifuged at 2,000 × g for 20 min at 8 °C. […] The fraction of unbound compound was calculated using the following equations: %Free=c(bufferchamber)/c(plasmachamber)*100% %Bound=100%−%Free

[5] = Plasma protein binding, equilibrium dialysis, human plasma; format: in vitro ADME; details: undiluted plasma, Table 6, human plasma, read-out: fup, fraction unbound in human plasma
Experimental: as §1, §2

[6] = target: T1, recombinant human CD73 (hCD73) (Homo sapiens, UniProt P21589); assay: CD73 activity assay on recombinant human CD73; format: biochemical; details: ΔGexp = RT ln Ki
T1 sequence (P21589 27-574): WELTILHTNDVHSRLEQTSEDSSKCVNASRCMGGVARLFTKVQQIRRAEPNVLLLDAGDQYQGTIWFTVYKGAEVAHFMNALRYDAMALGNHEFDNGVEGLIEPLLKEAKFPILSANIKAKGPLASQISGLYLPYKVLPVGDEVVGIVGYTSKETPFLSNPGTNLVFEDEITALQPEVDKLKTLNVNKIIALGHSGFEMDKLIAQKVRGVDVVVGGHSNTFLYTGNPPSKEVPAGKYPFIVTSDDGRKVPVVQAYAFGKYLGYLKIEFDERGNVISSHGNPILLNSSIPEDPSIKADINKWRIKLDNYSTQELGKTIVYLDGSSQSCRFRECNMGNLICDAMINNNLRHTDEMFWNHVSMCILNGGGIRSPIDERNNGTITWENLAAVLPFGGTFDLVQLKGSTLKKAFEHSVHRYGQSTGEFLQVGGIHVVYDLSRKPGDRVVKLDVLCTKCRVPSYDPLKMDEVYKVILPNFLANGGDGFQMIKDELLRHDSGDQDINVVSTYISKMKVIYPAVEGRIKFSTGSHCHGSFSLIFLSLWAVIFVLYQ

[7] = Microsomal stability assay, human liver microsomes; format: in vitro ADME; details: 10 μM
[8] = in vitro; details: mouse, plasma
[9] = in vitro; details: human, plasma

| Structure (SMILES) | half-life [1] | clearance [1] | Mics (m) comp remaining 60 min [2] | solubility at 2 h [3] | fraction unbound at 4 h, 100 µM [4] | fraction unbound at 4 h, 100 µM [5] | dG_exp, experimental binding free energy [6] | Mics (hu) comp remaining 60 min [7] | half-life at 10 µM [8] | half-life at 10 µM [9] |
| --- | --- | --- | --- | --- | --- | --- | --- | --- | --- | --- |
| O=P(O)(O)CP(=O)(O)OC[C@H]1O[C@@H](n2ccc3c(-c4ccccc4)ncnc32)[C@@H](F)[C@@H]1O [34A.5, [(5-{[4-Phenyl-7H-pyrrolo[2,3-d]pyrimidin-7-yl]-2-deoxy-2-fluoro-β-D-arabinosyl}oxy)phosphonomethyl]phosphonic Acid] | 5.1 h | 3.3 mL/min/kg | 97% | 245 µM (≈ 119 µg/mL) | 0.2 | 0.022 | –11.2 kcal/mol | 93% | > 2 h | > 2 h |
| O=P(O)(O)CP(=O)(O)OC[C@H]1O[C@@H](n2ccc3c(-c4ccnc5ccccc45)ncnc32)[C@@H](F)[C@@H]1O [34A.28] | 1.32 h | 18 mL/min/kg | 101% | 100 µM (≈ 53.8 µg/mL) | 0.058 | 0.014 | –12.5 kcal/mol | 102% | > 2 h | > 2 h |
| O=P(O)(O)CP(=O)(O)OC[C@H]1O[C@@H](n2ccc3c(-c4cccc5ccccc45)ncnc32)[C@@H](F)[C@@H]1O [34A.6] | 1.3 h | 19 mL/min/kg | 94% | 167 µM (≈ 89.7 µg/mL) | 0.065 | 0.017 | –11.8 kcal/mol | 97% | > 2 h | > 2 h |
| O=P(O)(O)CP(=O)(O)OC[C@H]1O[C@@H](n2ccc3c(-c4ccc(F)c5ccccc45)ncnc32)[C@@H](F)[C@@H]1O [34A.23] | – | – | 116% | 100 µM (≈ 55.5 µg/mL) | 0.017 | 0.001 | –12.3 kcal/mol | 98% | > 2 h | > 2 h |
| O=P(O)(O)CP(=O)(O)OC[C@H]1O[C@@H](n2ccc3c(-c4ccc5ccccc5c4)ncnc32)[C@@H](F)[C@@H]1O [34A.7] | 3.13 h | 7.2 mL/min/kg | 90% | 82 µM (≈ 44.1 µg/mL) | 0.022 | 0.002 | –11.8 kcal/mol | 94% | > 2 h | > 2 h |
| O=P(O)(O)CP(=O)(O)OC[C@H]1O[C@@H](n2ccc3c(-c4cccc5c4CCCC5)ncnc32)[C@@H](F)[C@@H]1O [34A.12] | – | – | 115% | 75 µM (≈ 40.6 µg/mL) | 0.055 | 0.007 | –12.4 kcal/mol | 96% | > 2 h | > 2 h |
| O=P(O)(O)CP(=O)(O)OC[C@H]1O[C@@H](n2ccc3c(-c4ccc5c(c4)CCCC5)ncnc32)[C@@H](F)[C@@H]1O [34A.17] | – | – | 89% | 73 µM (≈ 39.5 µg/mL) | 0.253 | 0.05 | –11.8 kcal/mol | 90% | > 2 h | > 2 h |
